Measured values reported in patent US10952433B2, “Solutions for enhancing the effectiveness of insecticides and fungicides on living plants and related methods” (priority 2015, dated 2021).
Where two headings read alike, the source gives them in different places.

How the values were obtained:
[1] = test system: lepidopteran larvae: cabbage loopers (Trichoplusia ni) and beet armyworms (Spodoptera exigua); format: in vivo; settings: leaf discs
Excerpt: A second series of tests involved romaine lettuce discs approximately ⅝ inch in diameter. (L. sativa). They were dipped in the treatment solution one second per disc. This test involved the 5/5 configuration, i.e., 5 treated and 5 untreated. The infestation involved […] lepidopteran larvae at the 3rd to 4th instar development per container: four cabbage loopers (Trichoplusia ni), and four beet armyworms (Spodoptera exigua) were employed. The test containers were placed in a dark humidity cabinet at 15° C. and 80% relative humidity. Visual evaluations of the average percent damage were taken at 24, 48 and 72 hours after the initiation of infestation. Damage was evaluated in 5% increments based on total disc area.
In the tests reported in Table 8 pages 29-32), romaine lettuce leaf discs ⅝″ in diameter (L. sativa) were dipped in the treatment solution for about one second per disc. Infestation was provided by eight lepidopteran larvae at the 3rd to 4th instar development per container. Four cabbage loopers (Trichoplusia ni) and four beet armyworms (Spodoptera exigua) were employed in infestation. The containers were placed in a dark humidity cabinet at 15° C. and 80% relative humidity. Visual observations of the average percent damage was taken at 24, 48 and 72 hours after infestation. Damage evaluation was by 5% increments over the total disc area.
In the tests results provided in Table 8, the identity and concentrations of the insecticide was identical to the tests results reported in Table 7. The concentration of 200:1 was employed for the no amino oxide, no buffer and buffered amine oxide system. This series of tests, however, reported how the percent damage changed with time at the respective 24, 48 and 72 hour intervals.

[2] = test system: lepidopteran larvae: cabbage loopers (Trichoplusia ni) and beet armyworms (Spodoptera exigua); format: in vivo; settings: plants
Procedure: In a first group of tests, the results of which are shown in Table 7 (pages 22-24), romaine lettuce plants two to three inches in height were exposed to 10 milliliters of solution applied to each plant using a low volume trigger spray. With respect to containers 0-7, ten plants were employed per container, nine were treated and one was an internal control. In containers M-H, ten plants per container were used, five were treated and 5 were internal controls. Each container was infested with 30 lepidopteran larvae between the 5th and 6th instar development. Fifteen cabbage loopers (Trichoplusia ni) and 15 beet armyworms (Spodoptera exigua) were used to infest the romaine lettuce plants. Visual evaluations for the average percentage total surface area damage were taken 24 hours after infestation. Percentage damage was evaluated by 5% increments for total damage across all plant leaves.
As indicated in the first column of Table 7, in some tests, no insecticide was employed and there were two controls; a no water control and a no dye control. A wide variety of insecticides selected from the following group were tested: Chlorantranilopril, Acephate, Methoxyfenozide, Spinosad, Permethrin, and Indoxacarb. The product concentration is shown in PPM in column 2. Column 3 is divided into two subunits, the first being CO3 and the second, PO4. In all instances in columns 3, 4 and 5 and their sub-columns, the concentrations used were 200:1. The fourth column employed amine oxide, but no buffer. […] Two sub-columns each are represented for CO3 and PO4. The final column is a reading of the Percent Lepidopteran Damage to the romaine lettuce plants after 24 hours.
In addition to testing the buffered amine system of the present invention with the two amine oxides identified as CO3 and PO4 and their use with 12 carbon length and a mixture of 12 and 18 designated 1218 for comparative data purposes various differences were created in the testing. Some of the tests were performed with (a) no insecticide along with (b) no amine oxide for CO3 and PO4 and (c) with no buffer, but with amine oxide. Also, tests were run using no insecticide and no water control with no foliar application being made. Tests with no insecticide and no dye control employed foliar application of water only. The tests were conducted with all of the testing on the buffer alone, the amine oxide alone and the buffered amine oxide system of the present invention in the concentration of 200:1.

[3] = insecticide + CO3 buffer 200:1, no amine oxide, PPM: Chlorantranilopril 60, Acephate 70, Methoxyfenozide 100, Spinosad 30, Permethrin 10, Indoxacarb 50
[4] = insecticide + PO4 buffer 200:1, no amine oxide, PPM: Chlorantranilopril 60, Acephate 70, Methoxyfenozide 100, Spinosad 30, Permethrin 10, Indoxacarb 50
[5] = insecticide + amine oxide 12, no buffer, 200:1, PPM: Chlorantranilopril 60, Acephate 70, Methoxyfenozide 100, Spinosad 30, Permethrin 10, Indoxacarb 50
[6] = insecticide + amine oxide 1218, no buffer, 200:1, PPM: Chlorantranilopril 60, Acephate 70, Methoxyfenozide 100, Spinosad 30, Permethrin 10, Indoxacarb 50
[7] = insecticide + buffered amine oxide system CO3, 12, 200:1, PPM: Chlorantranilopril 60, Acephate 70, Methoxyfenozide 100, Spinosad 30, Permethrin 10, Indoxacarb 50
[8] = insecticide + buffered amine oxide system CO3, 1218, 200:1, PPM: Chlorantranilopril 60, Acephate 70, Methoxyfenozide 100, Spinosad 30, Permethrin 10, Indoxacarb 50
[9] = insecticide + buffered amine oxide system PO4, 12, 200:1, PPM: Chlorantranilopril 60, Acephate 70, Methoxyfenozide 100, Spinosad 30, Permethrin 10, Indoxacarb 50
[10] = insecticide + buffered amine oxide system PO4, 1218, 200:1, PPM: Chlorantranilopril 60, Acephate 70, Methoxyfenozide 100, Spinosad 30, Permethrin 10, Indoxacarb 50
[11] = insecticide alone, highest, PPM: Chlorantranilopril 120, Acephate 140, Methoxyfenozide 200, Spinosad 60, Permethrin 20, Indoxacarb 100
[12] = insecticide alone, increased, PPM: Chlorantranilopril 90, Acephate 105, Methoxyfenozide 150, Spinosad 45, Permethrin 15, Indoxacarb 75
[13] = insecticide alone, PPM: Chlorantranilopril 60, Acephate 70, Methoxyfenozide 100, Spinosad 30, Permethrin 10, Indoxacarb 50

## COC(=O)N(C(=O)N1CO[C@@]2(C(=O)OC)Cc3cc(Cl)ccc3C2=N1)c1ccc(OC(F)(F)F)cc1 [Indoxacarb]
[1]; [3]
  Percent Lepidopteran Damage to Romaine Lettuce 24 hr: 21.5%
  Percent Lepidopteran Damage to Romaine Lettuce 48 hr: 29.0%
  Percent Lepidopteran Damage to Romaine Lettuce 72 hr: 37.5%
[1]; [4]
  Percent Lepidopteran Damage to Romaine Lettuce 24 hr: 22.5%
  Percent Lepidopteran Damage to Romaine Lettuce 48 hr: 25.0%
  Percent Lepidopteran Damage to Romaine Lettuce 72 hr: 32.5%
[1]; [5]
  Percent Lepidopteran Damage to Romaine Lettuce 24 hr: 45.5%
  Percent Lepidopteran Damage to Romaine Lettuce 48 hr: 55.0%
  Percent Lepidopteran Damage to Romaine Lettuce 72 hr: 61.5%
[1]; [6]
  Percent Lepidopteran Damage to Romaine Lettuce 24 hr: 44.5%
  Percent Lepidopteran Damage to Romaine Lettuce 48 hr: 68.0%
  Percent Lepidopteran Damage to Romaine Lettuce 72 hr: 71.0%
[1]; [7]
  Percent Lepidopteran Damage to Romaine Lettuce 24 hr: 33.5%
  Percent Lepidopteran Damage to Romaine Lettuce 48 hr: 46.5%
  Percent Lepidopteran Damage to Romaine Lettuce 72 hr: 57.5%
[1]; [8]
  Percent Lepidopteran Damage to Romaine Lettuce 24 hr: 26.5%
  Percent Lepidopteran Damage to Romaine Lettuce 48 hr: 50.5%
  Percent Lepidopteran Damage to Romaine Lettuce 72 hr: 57.0%
[1]; [9]
  Percent Lepidopteran Damage to Romaine Lettuce 24 hr: 61.0%
  Percent Lepidopteran Damage to Romaine Lettuce 48 hr: 63.5%
  Percent Lepidopteran Damage to Romaine Lettuce 72 hr: 71.0%
[1]; [10]
  Percent Lepidopteran Damage to Romaine Lettuce 24 hr: 19.0%
  Percent Lepidopteran Damage to Romaine Lettuce 48 hr: 34.5%
  Percent Lepidopteran Damage to Romaine Lettuce 72 hr: 34.5%
[1]; [11]
  Percent Lepidopteran Damage to Romaine Lettuce 24 hr: 25.0%
  Percent Lepidopteran Damage to Romaine Lettuce 48 hr: 35.5%
  Percent Lepidopteran Damage to Romaine Lettuce 72 hr: 39.5%
[1]; [12]
  Percent Lepidopteran Damage to Romaine Lettuce 24 hr: 32.0%
  Percent Lepidopteran Damage to Romaine Lettuce 48 hr: 38.0%
  Percent Lepidopteran Damage to Romaine Lettuce 72 hr: 72.0%
[1]; [13]
  Percent Lepidopteran Damage to Romaine Lettuce 24 hr: 19.5%
  Percent Lepidopteran Damage to Romaine Lettuce 48 hr: 68.5%
  Percent Lepidopteran Damage to Romaine Lettuce 72 hr: 88.0%
[2]; [3]
  Percent Lepidopteran Damage to Romaine Lettuce 24 hr: 50.5%
[2]; [4]
  Percent Lepidopteran Damage to Romaine Lettuce 24 hr: 25.5%
[2]; [5]
  Percent Lepidopteran Damage to Romaine Lettuce 24 hr: 26.5%
[2]; [6]
  Percent Lepidopteran Damage to Romaine Lettuce 24 hr: 25.5%
[2]; [7]
  Percent Lepidopteran Damage to Romaine Lettuce 24 hr: 7.0%
[2]; [8]
  Percent Lepidopteran Damage to Romaine Lettuce 24 hr: 7.0%
[2]; [9]
  Percent Lepidopteran Damage to Romaine Lettuce 24 hr: 7.5%
[2]; [10]
  Percent Lepidopteran Damage to Romaine Lettuce 24 hr: 8.0%
[2]; [11]
  Percent Lepidopteran Damage to Romaine Lettuce 24 hr: 12.0%
[2]; insecticide alone, highest, PPM: Chlorantranilopril 120, Acephate 140, Methoxyfenozide 200, Spinosad 60, Permethrin 20, Indoxacarb 100, listed as lndoxacarb
  Percent Lepidopteran Damage to Romaine Lettuce 24 hr: 12.5%
[2]; [12]
  Percent Lepidopteran Damage to Romaine Lettuce 24 hr: 20.0%
[2]; [13]
  Percent Lepidopteran Damage to Romaine Lettuce 24 hr: 47.0%
